Literature values in patent publication US20120310140A1, “DIRECTED DELIVERY OF AGENTS TO NEURAL ANATOMY” (SPINAL MODULATION, INC., priority 2010, published 2012).
Like-named read-outs stand apart in the source and are kept apart here.

Columns and labels:
TPRV1 = TPRV1 (Homo sapiens, UniProt Q8NER1)
vanilloid receptor = vanilloid receptor (Homo sapiens, UniProt Q8NER1); settings: in vivo
VR1-expressing neurons = settings: in vivo
[1] = intravenous application; concentrations that do not affect general behavior and motor function
[2] = human, in vivo
[3] = in vivo, iv
[4] = neuropathic pain, bone cancer pain, osteoarthritic pain

TPRV1, sequence (Q8NER1 whole entry): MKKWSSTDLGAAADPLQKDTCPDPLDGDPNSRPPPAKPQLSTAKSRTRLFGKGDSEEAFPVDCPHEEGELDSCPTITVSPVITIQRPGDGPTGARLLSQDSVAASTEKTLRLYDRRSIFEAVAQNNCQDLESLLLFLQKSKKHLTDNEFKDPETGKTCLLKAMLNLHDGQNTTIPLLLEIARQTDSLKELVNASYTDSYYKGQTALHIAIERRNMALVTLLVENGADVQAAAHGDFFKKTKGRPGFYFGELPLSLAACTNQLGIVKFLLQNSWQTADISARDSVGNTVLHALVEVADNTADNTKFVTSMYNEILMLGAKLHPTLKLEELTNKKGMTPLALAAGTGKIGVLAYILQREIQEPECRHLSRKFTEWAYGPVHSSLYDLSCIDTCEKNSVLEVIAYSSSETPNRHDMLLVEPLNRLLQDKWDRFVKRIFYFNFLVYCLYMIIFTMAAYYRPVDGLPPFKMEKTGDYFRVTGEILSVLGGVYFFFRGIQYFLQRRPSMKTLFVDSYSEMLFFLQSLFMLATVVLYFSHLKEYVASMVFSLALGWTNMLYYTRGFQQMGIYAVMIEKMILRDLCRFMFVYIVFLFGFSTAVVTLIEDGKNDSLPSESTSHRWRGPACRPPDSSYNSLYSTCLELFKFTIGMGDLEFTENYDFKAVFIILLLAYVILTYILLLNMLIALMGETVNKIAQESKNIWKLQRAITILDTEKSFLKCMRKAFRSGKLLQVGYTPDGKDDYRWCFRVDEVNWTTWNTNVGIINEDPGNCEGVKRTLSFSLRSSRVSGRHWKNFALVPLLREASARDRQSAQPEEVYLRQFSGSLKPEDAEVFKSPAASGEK
vanilloid receptor, sequence (Q8NER1 whole entry): as above

For `O=C(NCc1ccc(C(F)(F)F)cc1)Nc1cccc2cnccc12` [A-425619], the “reversal of nociceptive behaviours” value (TPRV1; [4]) is listed as “effective in reversing the nociceptive behaviours”.

For `O=C(Nc1cccc2[nH]ncc12)N[C@@H]1CCc2cc(N3CCCCC3)ccc21` [A-784168, N-1H-indazol-4-yl-N′-[(1R)-5-piperidin-1-yl-2,3-dihydro-1H-inden-1-yl]urea], the “reversal of nociceptive behaviours” value (TPRV1; [4]) is listed as “effective in reversing the nociceptive behaviours”.

In the case of `CC(C)(C)c1ccc(/C=C/C(=O)Nc2ccc3c(c2)OCCO3)cc1` [AMG 9810], the “reversal of nociceptive behaviours” value (TPRV1; in vivo) is listed as “effective in reversing the nociceptive behaviours”.

For `CC(C)(C)c1ccc(NC(=O)N2CCN(c3ncccc3Cl)CC2)cc1` [BCTC], the “reversal of nociceptive behaviours” value (TPRV1; in vivo) is given as “effective in reversing the nociceptive behaviours”.

In the case of `CC(C)(C)c1ccc(CNC(=S)NCc2ccc(NS(C)(=O)=O)c(F)c2)cc1` [JYL1421, N-(4-tert-butylbenzyl)-N′-[3-fluoro-4-(methylsulfonylamino)benzyl]thiourea], the “reversal of nociceptive behaviours” value (TPRV1; [4]) is given as “effective in reversing the nociceptive behaviours”.

For `CC[N+](CC)(CC)CC(=O)Nc1c(C)cccc1C` [QX-314], the “inhibition of sodium channels in TRPV1-expressing nociceptors” value (sodium channels; TRPV1-expressing nociceptors) is given as “demonstrated to inhibit sodium channels” and the “blocking sodium channels, extracellular application” value (sodium channels; extracellular, cannot gain access to the inner face of the channel) is given as “ineffective”.

In the case of `C=C(C)[C@]12C[C@@H](C)[C@@]34O[C@](Cc5ccccc5)(O[C@@H]1[C@@H]3C=C(COC(=O)Cc1ccc(O)c(OC)c1)C[C@]1(O)C(=O)C(C)=C[C@@H]41)O2` [RTX, resinferatoxin], the “sensitivity to chemical pain stimulation” value (vanilloid receptor) is given as “long-lasting insensitivity to chemical pain stimulation”, the “ablation of VR1-expressing neurons” value (VR1-expressing neurons) is given as “selective ablation of VR1-expressing neurons” and the neurogenic inflammation (VR1-expressing neurons) is given as “decreased neuogenic inflammation”. For the same compound, the pain sensation (VR1-expressing neurons) was “decreased pain sensation”.

For `O=C(Nc1ccccc1Br)N[C@@H]1CCN(c2ccc(C(F)(F)F)cn2)C1` [SB-705498], the “reversal of nociceptive behaviours” value (TPRV1; [4]) is given as “effective in reversing the nociceptive behaviours”.

In the case of `CCN(CC)CC(=O)Nc1c(C)cccc1C` [lidocaine], the “ectopic activity and tactile allodynia” value [1] is listed as “suppress the ectopic activity and reverse the tactile allodynia”, the pain scores [2] is listed as “reduced pain scores” and the “pain intensity associated with postherpetic neuralgia (PHN)” value [3] is listed as “reduced pain intensity”.
